# Measurements reported in patent US7084239B1, “Cancer peptides of NY-ESO-1/CAG-3” (The United States of America as represented by the …, priority 1997, dated 2006).
# Columns and labels:
# Type in all cases: cell-based, human
# [1] = test system: CTL clone 2; experiment: T cell recognition (GM-CSF release) of peptide-pulsed EBV B cells by CTL clone 2; settings: peptide pulsed onto 1510EBV or 586EBV B cells
# Excerpt: (§1) FIGS. 7A–7C. An alternative open reading frame of the NY-ESO-1 gene and antigenic peptides recognized by CTL. FIG. 7A. Identification of antigenic peptides from the ORF2. Thirty peptides were synthesized based on all potential ORFs and screened. Representative data are shown here. Seven peptides derived from ORF2 (see FIG. 3A) were pulsed on HLA-A31 positive 1510EBV B cells and tested for T cell recognition based on GM-CSF release ([…], SEQ ID NO: 123; […], SEQ ID NO: 124; […], SEQ ID NO: 125; […], SEQ ID NO: 46; […], SEQ ID NO: 47; […], SEQ ID NO: 126; and […], SEQ ID NO: 127). 1510 EBV alone was used as a negative control. FIG. 7B. 1510EBV B cells were labeled with chromium for 2 h. The ESORF2-10-18 peptide was then pulsed on the chromium-labeled […] (solid square) and HLA-A31-negative 1102EBV (open circle) at different concentrations. 1510EBV pulsed with ESO10-53, which was recognized by CTL clone 5, was used for the specificity control (solid triangle). After peptide incubation and three washes, cytolysis of target cells by CTL-clone 2 was determined in a 4-h chromium release assay at an E:T ratio of 20:1. FIG. 7C. Several tumor lines and fresh breast tumors were tested for recognition by CTL clone 2 to determine whether the ORF2 is translated in different tumors. 1510EBV B cells pulsed with […] (SEQ ID NO: 25) (ESO10-53), […] (SEQ ID NO: 47) (ORF2-10-18), or alone were included to evaluate the reactivity and specificity of CTL clone 2 and 5. Expression of HLA-A31 on the tumor cells is indicated.
# (§2) DNA transfection and GM-CSF assay were done as previously described (Wang, R. F., P. F. Robbins, Y. Kawakami, X. Q. Kang, and S. A. Rosenberg, 1995, J. Exp. Med. 181:799–804). Briefly, […] of DNA carrying a different fragment and 50 ng of the HLA-A31 DNA were mixed with 2 μl of lipofectamine in 100 μl of serum-free DMEM for 15–45 min. The DNA/lipofectamine mixture was then added to the COS-7 (5×10^4) cells and incubated overnight. The following day, cells were washed twice with DMEM medium. TIL586, CTL clone 5 or CTL clone 10 were added at a concentration of 5×10^4 cells/well in AIM-V medium containing 120 IU/ml of IL-2. After 18–24 h incubation, 100 μl of supernatant was collected and GM-CSF was measured in a standard ELISA assay (R+D Systems, Minneapolis, Minn.). […]
# CTL clone 5 and TIL1244 were used for the specificity controls. […] To test the hypothesis that CTL may recognize a peptide from a gene product translated from an alternative open reading frame of the same gene, synthetic peptides were made with HLA-A31 Binding motif on the basis of amino acid sequence predicted from the second open reading frames (ORF2) (FIG. 3A). […]
# [2] = test system: CTL clone 2; experiment: Chromium release cytolysis of peptide-pulsed target cells by CTL clone 2; settings: peptide titration, 4-h chromium release, E:T ratio of 20:1 (FIG. 7B)
# Excerpt: as §1, with “Expression of HLA-A31 on the tumor cells is indicated.” left out
# Cytolytic assay was done as previously described (Kawakami, Y et al., 1994, Proc. Natl. Acad. Sci. USA 91:6458–62). […] The cells were washed again, counted, and then mixed with TIL586 or CTL clone 5 at the indicated ratio of effector: targets (E:T). Chromium release was measured after 4 h incubation. […] Percentage of specific lysis was determined from the equation (A−B)/(C−B)×100 where A is lysis of 586EBV B cells by TIL586 or clone 5 in the presence of a peptide, B is spontaneous release from 586EBV B cells in presence of the same peptide but in the absence of effector cells, and C is the maximum chromium release. […]
# [3] = test system: CTL clone 14; experiment: T cell recognition of peptide-pulsed EBV B cells by CTL clone 14; settings: peptide pulsed onto EBV B cells
# Excerpt: FIGS. 6A–6H. CTL clones 2 and 14 recognize the NY-ESO-1 gene, but not the ESO10-53 peptide derived from the NY-ESO-1 protein. CTL clones 2, 14 and 5 recognized NY-ESO-1 when cotransfected with HLA-A31 cDNA into COS-7 (FIG. 6A, C, E and G). TIL1244, which recognized TRP-2 But not NY-ESO-1, was used as a specificity control. FIGS. 6B, D, F and H. CTL clones 2, 5, 14, and TIL1244 recognized 586mel. […] TIL1244 recognized the TRP197-205 peptide derived from TRP-2, 586EBV B cells alone or pulsed with the ORF3P peptide from an alternative reading frame of TRP1 were negative controls. 397mel is an HLA-A31-negative, NY-ESO-1-positive tumor line.
# as §2, with “TIL586, CTL clone 5 or CTL clone 10 were added at a concentration of 5×10^4 cells/well in AIM-V medium containing 120 IU/ml of IL-2.” left out
sequence,measurement,setting,value
ASGPGGGAPR (listed as Homo sapiens) [ESO10-53],"Recognition by CTL clone 2, in words",[1],did not recognize
same,"Recognition by CTL clone 2, in words",[1]; listed as ESO 10-53,failed to recognize
same,Lysis of peptide-pulsed 1510EBV by CTL clone 2,[2],failed to lyse
same,"Recognition by CTL clone 14, in words",[3],did not recognize
same,"Recognition by CTL clone 14, in words",[3]; listed as ESO 10-53,failed to recognize
